In US20160106102A1, “KNOWN AND NEW HETEROCYCLIC COMPOUNDS AS PEST CONTROL AGENTS” (BAYER CROPSCIENCE AKTIENGESELLSCHAFT, priority 2013, published 2016):

Experiments:
Tetranychus urticae = Tetranychus urticae - spray test, OP-resistant (TETRUR); format: in vivo; details: application rate of 500 g/ha; after 6 days; bean leaf discs infested by all stages; 100% = all spider mites killed
Experimental: Tetranychus urticae—spray test, OP-resistant (TETRUR)
(§1) Solvent: 78.0 parts by weight of acetone • • 1.5 parts by weight of dimethylformamide
(§2) Emulsifier: alkylaryl polyglycol ether
(§3) To produce an appropriate active ingredient formulation, 1 part by weight of active ingredient is dissolved using the specified parts by weight of solvent and made up with water containing an emulsifier concentration of 1000 ppm until the desired concentration is attained. To produce further test concentrations, the preparation is diluted with emulsifier-containing water.
Discs of bean leaves (Phaseolus vulgaris) infested by all stages of the greenhouse red spider mite (Tetranychus urticae) are sprayed with an active ingredient formulation of the desired concentration.
After 6 days, the efficacy in % is determined. 100% means that all the spider mites have been killed; 0% means that no spider mites have been killed.

[1] = log P determination by LC-MS in the acidic range; format: physicochemical; details: LC-MS in the acidic range
From the text: The LC-MS determination in the acidic range is effected at pH 2.7 using 0.1% aqueous formic acid and acetonitrile (contains 0.1% formic acid) as eluents, linear gradient from 10% acetonitrile to 95% acetonitrile. Alternatively, the determination is effected in the acidic range at pH 2.3 using 0.1% aqueous phosphoric acid and acetonitrile as eluents; linear gradient from 10% acetonitrile to 95% acetonitrile.

Spodoptera frugiperda = Spodoptera frugiperda - spray test (SPODFR); format: in vivo; details: application rate of 500 g/ha; after 7 days; armyworm caterpillars on sprayed maize leaf discs; 100% = all caterpillars killed
Experimental: Spodoptera frugiperda—Spray Test (SPODFR)
as §1, §2, §3
Leaf discs of maize (Zea mays) are sprayed with an active ingredient formulation of the desired concentration and, after drying, populated with caterpillars of the armyworm (Spodopterafrugiperda).
After 7 days, the efficacy in % is determined. 100% means that all the caterpillars have been killed; 0% means that no caterpillars have been killed.

Phaedon cochleariae = Phaedon cochleariae - spray test (PHAECO); format: in vivo; details: application rate of 500 g/ha; after 7 days; larvae of the mustard beetle on sprayed Chinese cabbage leaf discs; 100% = all larvae killed
Experimental: Phaedon cochleariae—Spray Test (PHAECO)
as §1, §2, §3
Discs of Chinese cabbage leaves (Brassica pekinensis) are sprayed with an active ingredient formulation of the desired concentration and, after drying, populated with larvae of the mustard beetle (Phaedon cochleariae).
After 7 days, the efficacy in % is determined. 100% means that all the beetle larvae have been killed; 0% means that no beetle larvae have been killed.

Myzus persicae [2] = assay: Myzus persicae - spray test; format: in vivo; details: application rate of 500 g/ha; after 6 days; sprayed Chinese cabbage leaf discs infested by all stages; 100% = all aphids killed
How it was run: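 Chinese cabbage leaf discs infested with all stages of green peach aphid sprayed with compound in acetone/DMF formulation with alkylaryl polyglycol ether emulsifier, diluted in emulsifier-containing water. Efficacy (% aphids killed) assessed after 6 days.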

Myzus persicae [3] = assay: Myzus persicae - sachet test; format: in vivo; details: 100% = all animals killed
How it was run: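 Green peach aphids feed through a sealed sachet on nutrient medium containing the water-diluted formulation (solvents: 2% N-methylpyrrolidone, 2% diacetone alcohol). Percent mortality read after the chosen time; 100% means all animals killed.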

[4] = application rate of 6 ppm in nutrient medium
[5] = application rate of 30 ppm in nutrient medium

| log P (acid) [1] | SMILES | efficacy in % (Tetranychus urticae) | efficacy in % (Spodoptera frugiperda) | efficacy in % (Phaedon cochleariae) | efficacy in % (Myzus persicae [2]) | efficacy (kill in %) (Myzus persicae [3]; [4]) | efficacy (kill in %) (Myzus persicae [3]; [5]) |
| --- | --- | --- | --- | --- | --- | --- | --- |
| 1.94 | CCCC(=O)n1nc(NC(=O)c2cccnc2)cc1C [Compound I-1-131] | 90% | 100% | 100% | 90% | 100% | 100% |
| 0.9 | Cc1nc(Cn2nc(NC(=O)c3cccnc3)cc2C)no1 [Compound I-1-282] | 90% |  |  | 90% | 100% | 100% |
| 1.92 | CCC(CC)n1nc(NC(=O)c2cccnc2)cc1C [Compound I-1-210] | 90% |  |  |  |  | 80% |
| 1.59 | CCC(C)n1nc(NC(=O)c2cccnc2)cc1C (stereo not shown) [Compound I-1-205] | 90% |  |  | 100% |  | 100% |
